Converted amounts (≈) assume the structure as drawn. Where two headings read alike, the source gives them in different places.
Columns and labels:
Assay type in all cases: cell-based
E. coli UC 45 = assay: standard microplate test in BHI Agar; conditions: Escherichia coli, UC45, 37°, 20 hours, Table III, read-out: Minimum Inhibitory Concentration
Description: (§1) The compounds VII, XI, XVβ, XVα and XVI were tested in a standard microplate test in BHI (Brain Heart Infusion) Agar at a concentration of 1 mg./ml. and dilutions thereof at 37° incubation temperature. The end points are read out 20 hours. BHI Agar is supplied by Difco Laboratories, Detroit, Mich.

S. pyogenes UC 152 = assay: standard microplate test in BHI Agar; conditions: Streptococcus pyogenes
Description: as §1

P. vulgaris UC 93 [1] = assay: standard microplate test in BHI Agar; conditions: Proteus vulgaris, UC93, 20 h
Description: as §1

S. schottmuelleri UC 126 [2] = assay: standard microplate test in BHI Agar; conditions: 37°, 20 hours
Description: as §1

S. aureus UC 76 = assay: standard microplate test in BHI Agar; conditions: Staphylococcus aureus
Description: as §1

S. pneumoniae I UC 41 = assay: standard microplate test in BHI Agar; conditions: Streptococcus pneumoniae, UC41, 20 h
Description: as §1

S. flexneri UC 143 = assay: standard microplate test in BHI Agar; conditions: Shigella flexneri, UC143, 37°, 20 hours
Description: as §1

K. pneumoniae UC 58 = assay: standard microplate test in BHI Agar; conditions: Klebsiella pneumoniae
Description: as §1

S. typhi UC 215 = assay: standard microplate test in BHI Agar; conditions: Salmonella enterica, 20 h
Description: as §1

P. morganii UC 3186 = assay: standard microplate test in BHI Agar; conditions: Morganella morganii
Description: as §1

S. faecalis UC 694 = assay: standard microplate test in BHI Agar; conditions: Enterococcus faecalis
Description: as §1

P. rettgeri UC 339 = assay: standard microplate test in BHI Agar; conditions: Providencia rettgeri
Description: as §1

S. marcescens UC 131 = assay: standard microplate test in BHI Agar; conditions: Serratia marcescens, UC131, 20 h
Description: as §1

P. mirabilis UC 6671 = assay: standard microplate test in BHI Agar; conditions: Proteus mirabilis, UC6671, 20 h
Description: as §1

Ps. aeruginosa UC 95 [3] = assay: standard microplate test in BHI Agar; conditions: Pseudomonas aeruginosa
Description: as §1

S. gallinarum UC 265 = assay: standard disc plate assay, zones of inhibition; conditions: Salmonella enterica, 12.5 mm paper discs, Table I, read-out: Zones of Inhibition
From the text: (§2) The compounds of formulas (V, VII, IX, XI, XIV, XVI, and XIX) are active as antibacterials and can be used in various environments to erradicate or control susceptible microorganisms. Tables I and II set forth the in vitro antibacterial test results for representative compounds of the present invention. The results were obtained with a standard disc plate assay using 12.5 mm paper discs.

K. pneumoniae UC 57 = assay: standard disc plate assay, zones of inhibition; conditions: Klebsiella pneumoniae, UC57, 12.5 mm paper discs, Table I, read-out: Zones of Inhibition
From the text: as §2

P. vulgaris UC 93 [4] = assay: standard disc plate assay, zones of inhibition; conditions: Proteus vulgaris, UC93, 12.5 mm paper discs, Table I, read-out: Zones of Inhibition
From the text: as §2

S. schottmuelleri UC 126 [5] = assay: standard disc plate assay, zones of inhibition; conditions: 12.5 mm paper discs, Table I
From the text: as §2

S. aureus UC 80 = assay: standard disc plate assay, zones of inhibition; conditions: Staphylococcus aureus, UC80, 12.5 mm paper discs, Table I, read-out: Zones of Inhibition
From the text: as §2

E. coli UC 51 = assay: standard disc plate assay, zones of inhibition; conditions: Escherichia coli, UC51, 12.5 mm paper discs, Table I, read-out: Zones of Inhibition
From the text: as §2

B. subtilis UC 564 = assay: standard disc plate assay, zones of inhibition; conditions: Bacillus subtilis, UC564, 12.5 mm paper discs, Table I, read-out: Zones of Inhibition
From the text: as §2

B. cereus UC 3145 = assay: standard disc plate assay, zones of inhibition; conditions: Bacillus cereus, UC3145, 12.5 mm paper discs, Table I, read-out: Zones of Inhibition
From the text: as §2

S. lutea UC 130 = assay: standard disc plate assay, zones of inhibition; conditions: Micrococcus luteus, UC130; 1 mg/ml; 12.5 mm paper discs; Table I; read-out: Zones of Inhibition
From the text: as §2

Ps. aeruginosa UC 95 [6] = assay: standard disc plate assay, zones of inhibition; conditions: Pseudomonas aeruginosa, UC95; 1 mg/ml; 12.5 mm paper discs; Table I; read-out: Zones of Inhibition
From the text: as §2

E. coli UC 311 = assay: standard microplate test in BHI Agar; conditions: Escherichia coli, UC311, 20 h, read-out: Minimal Inhibitory Concentration
Description: as §1

[7] = read-out: Minimum Inhibitory Concentration
[8] = Table III, read-out: Minimum Inhibitory Concentration
[9] = read-out: Minimal Inhibitory Concentration
[10] = Table IV, read-out: Minimal Inhibitory Concentration

SMILES: NC[C@H]1O[C@H](O[C@H]2[C@H](O)C[C@H](N)C[C@@H]2N)[C@H](N)[C@@H](O)[C@@H]1O [6-deoxyneamine (XI), 6-deoxyneamine]
- MIC (E. coli UC 45): 31.2 µg/mL (≈ 102 µM)
- MIC (S. pyogenes UC 152; UC152, 20 h, read-out: Minimum Inhibitory Concentration): 15.6 µg/mL (≈ 50.9 µM)
- MIC (P. vulgaris UC 93 [1]; [7]): 31.2 µg/mL (≈ 102 µM)
- MIC (S. schottmuelleri UC 126 [2]; [8]): 31.2 µg/mL (≈ 102 µM)
- MIC (S. aureus UC 76; UC76, BHI Agar, 37°, 20 hours, Table III, read-out: Minimum Inhibitory Concentration): 3.9 µg/mL (≈ 12.7 µM)
- MIC (S. pneumoniae I UC 41; [7]): 62.5 µg/mL (≈ 204 µM)
- MIC (S. flexneri UC 143; [8]): 62.5 µg/mL (≈ 204 µM)
- MIC (K. pneumoniae UC 58; UC58, 20 h, read-out: Minimum Inhibitory Concentration): 7.8 µg/mL (≈ 25.5 µM)
- MIC (S. typhi UC 215; [7]): 31.2 µg/mL (≈ 102 µM)
- MIC (P. morganii UC 3186; UC3186, 20 h, read-out: Minimum Inhibitory Concentration): 62.5 µg/mL (≈ 204 µM)
- MIC (S. faecalis UC 694; UC694, 20 h, read-out: Minimum Inhibitory Concentration): > 500 µg/mL
- MIC (P. rettgeri UC 339; UC339, 20 h, read-out: Minimum Inhibitory Concentration): 250 µg/mL (≈ 816 µM)
- MIC (S. marcescens UC 131; [7]): 250 µg/mL (≈ 816 µM)
- MIC (P. mirabilis UC 6671; [7]): 62.5 µg/mL (≈ 204 µM)
- MIC (Ps. aeruginosa UC 95 [3]; UC95, 20 h, read-out: Minimum Inhibitory Concentration): > 500 µg/mL

SMILES: NC[C@H]1O[C@H](O[C@@H]2[C@@H](N)C[C@@H](N)C[C@H]2O[C@@H]2O[C@H](CO)[C@@H](O)[C@H]2O)[C@H](N)[C@@H](O)[C@@H]1O [Compound XVβ, O-2,6-diamino-2,6-dideoxy-α-D-glucopyranosyl (1→4)-O-[β-D-ribofuranosyl(1→5)]-2,6-dideoxy-D-streptamine]
- zone of inhibition at 100 µg/mL (S. gallinarum UC 265; 0.1 mg/ml): 21 mm
- zone of inhibition at 1000 µg/mL (S. gallinarum UC 265; 1 mg/ml): 29 mm
- zone of inhibition at 100 µg/mL (K. pneumoniae UC 57; 0.1 mg/ml): 28 mm
- zone of inhibition at 1000 µg/mL (K. pneumoniae UC 57; 1 mg/ml): 36 mm
- zone of inhibition at 100 µg/mL (P. vulgaris UC 93 [4]; 0.1 mg/ml): 18 mm
- zone of inhibition at 1000 µg/mL (P. vulgaris UC 93 [4]; 1 mg/ml): 27 mm
- zone of inhibition at 100 µg/mL (S. schottmuelleri UC 126 [5]; 0.1 mg/ml): 16 mm
- zone of inhibition at 1000 µg/mL (S. schottmuelleri UC 126 [5]; 1 mg/ml): 24 mm
- zone of inhibition at 100 µg/mL (S. aureus UC 80; 0.1 mg/ml): 19 mm
- zone of inhibition at 1000 µg/mL (S. aureus UC 80; 1 mg/ml): 27 mm
- zone of inhibition at 100 µg/mL (E. coli UC 51; 0.1 mg/ml): 20 mm
- zone of inhibition at 1000 µg/mL (E. coli UC 51; 1 mg/ml): 27 mm
- zone of inhibition at 100 µg/mL (B. subtilis UC 564; 0.1 mg/ml): 31 mm
- zone of inhibition at 1000 µg/mL (B. subtilis UC 564; 1 mg/ml): 39 mm
- zone of inhibition at 100 µg/mL (B. cereus UC 3145; 0.1 mg/ml): 17 mm
- zone of inhibition at 1000 µg/mL (B. cereus UC 3145; 1 mg/ml): 26 mm
- zone of inhibition at 1000 µg/mL (S. lutea UC 130): 19 mm
- zone of inhibition at 1000 µg/mL (Ps. aeruginosa UC 95 [6]): 15 mm
- MIC (S. pyogenes UC 152; UC152, BHI Agar, 37°, 20 hours, Table IV, read-out: Minimal Inhibitory Concentration): 3.9 µg/mL (≈ 8.89 µM)
- MIC (P. vulgaris UC 93 [1]; [9]): 31.2 µg/mL (≈ 71.2 µM)
- MIC (S. schottmuelleri UC 126 [2]; [10]): 7.8 µg/mL (≈ 17.8 µM)
- MIC (S. aureus UC 76; UC76, 20 h, read-out: Minimal Inhibitory Concentration): 31.2 µg/mL (≈ 71.2 µM)
- MIC (E. coli UC 311): 31.2 µg/mL (≈ 71.2 µM)
- MIC (S. pneumoniae I UC 41; [9]): 15.6 µg/mL (≈ 35.6 µM)
- MIC (S. flexneri UC 143; [10]): 31.2 µg/mL (≈ 71.2 µM)
- MIC (K. pneumoniae UC 58; UC58, BHI Agar, 37°, 20 hours, Table IV, read-out: Minimal Inhibitory Concentration): 2 µg/mL (≈ 4.56 µM)
- MIC (S. typhi UC 215; [9]): 15.6 µg/mL (≈ 35.6 µM)
- MIC (P. morganii UC 3186; UC3186, BHI Agar, 37°, 20 hours, Table IV, read-out: Minimal Inhibitory Concentration): 7.8 µg/mL (≈ 17.8 µM)
- MIC (S. faecalis UC 694; UC694, BHI Agar, 37°, 20 hours, Table IV, read-out: Minimal Inhibitory Concentration): 500 µg/mL (≈ 1140 µM)
- MIC (P. rettgeri UC 339; UC339, BHI Agar, 37°, 20 hours, Table IV, read-out: Minimal Inhibitory Concentration): > 500 µg/mL
- MIC (S. marcescens UC 131; [9]): 62.5 µg/mL (≈ 143 µM)
- MIC (P. mirabilis UC 6671; [9]): 125 µg/mL (≈ 285 µM)
- MIC (Ps. aeruginosa UC 95 [3]; UC95, BHI Agar, 37°, 20 hours, Table IV, read-out: Minimal Inhibitory Concentration): > 500 µg/mL

Reference: patent US4169197A, “6-Deoxyneamines aminoglycoside compounds” (The Upjohn Company, priority 1978, dated 1979)
